Assay results taken from patent US10562922B2, “Silicon based cyclic compounds and pharmaceutical compositions for treating malaria and toxoplasmosis” (Council of Scientific and Industrial Research, priority 2016, dated 2020).
Several values for one entry are separate records, joined by “and”; a condition that tells them apart may be missing. Identical values can stand only once. Like-named read-outs stand apart in the source and are kept apart here.

Key:
[1] = system: Plasmodium falciparum (3D7); test: Anti-malarial screening (SybrGreen parasite growth assay); type: cell-based; settings: for inhibition at 10 µM: read-out: % inhibition (P. falciparum)
Procedure: a) Anti-malarial Screening:
Plasmodium falciparum (3D7; Malaria Research and Reference Reagent Resource Center ID NO: MRA-102) is cultured in the laboratory as per standard protocols [Moll K., Ljungström I., Perlmann H., Scherf A., and Wahlgren M., (Editors). Methods in Malaria Research. Joint publication by Malaria Research and Reference Reagent Resource Center (MR4), ATCC, USA and BioMalPar, EU. 2008]. Briefly, P. falciparum is cultured using 2% hematocrit washed RBCs, separated from freshly collected human blood, in RPMI media containing glutamine, sodium bicarbonate and antibiotics. Parasites are routinely synchronized using 5% sorbitol treatment. Anti-malarial screens are carried out in two stages: 1) a primary screen at a fixed concentration of 10 μM to find out % inhibition of growth; and 2) a dose assay for finding out the IC50 for hits identified from the primary screen. Assays are setup as follows. 200 μls of the diluted parasite culture (2% parasitemia and 2% hematocrit; at late ring stage), is added to each well in a 96 well plate pre-seeded with the compound of interest at the required concentration of 10 μM. The master stocks and dilutions of the compounds are prepared in cell culture grade DMSO. NOTE: DMSO only treatment control is done and the results are used for normalizing the data obtained from compound treatment. All compounds are plated in triplicates. Each 96 well plate also includes negative controls (compound untreated culture) and positive controls (standard anti-malarial treated culture). Standard anti-malarials used are chloroquine, artemisinine and atovaquone, each at 1 μM concentration. After plating, the culture is incubated in standard growth condition for 60 hours, after which the cultures are processed for testing the effect of compounds on parasite growth using SybrGreen staining and fluorescence measurements at […] emmission following excitation at 498 nm. Since only parasites have DNA (as RBCs are devoid of nucleus), the SybrGreen signal is a direct indictor of parasitemia in respective samples. Results are used to quantifying relative parasite growth (or conversely % inhibition of growth) in untreated, standard anti-malarial treated and test molecule treated P. falciparum cultures. […] Data from the preliminary screen (@ 10 μM only) along with data from the dose response experiment and IC50 values for the selected molecules are tabulated in Table-2.

[2] = system: T. gondii; test: Anti-toxoplasma screening (TgLuc+ luciferase growth assay in HFF host cells); type: cell-based, Toxoplasma gondii
Text: b) Anti-toxoplasma Screening:
For screening bioactivity of test molecules against T. gondii, a transgenic line of the parasite (TgLuc+) expressing the luciferase gene is used [Edwin Kamau, Tracy Meehan, Mark D. Lavine, Gustavo Arrizabalaga, Gabriela Mustata Wilson and Jon Boyle. A Novel Benzodioxole-Containing Inhibitor of Toxoplasmagondii Growth Alters the Parasite Cell Cycle. Antimicrob Agents Chemother. 2011, 55(12): 5438-5451]. The parental parasite used to generate the TgLuc+ strain is aType I (RH) virulent strain (ATCC reference 50174D), which can also be used for in vivo studies in mice, if needed. The tachyzoite stage of the parasites are routinely cultured in the laboratory using standard protocols [Roos D S, Donald R G, Morrissette N S, Moulton A L. Molecular tools for genetic dissection of the protozoan parasite Toxoplasma gondii. Methods Cell Biol. 1994, 45:27-63]. In brief, a confluent monolayer of Human Foreskin Fibroblast (HFF; ATCC reference SCRS-1041) cells in culture are used as the host cells for infection with tachyzoitestage T. gondii. The culture media used to grow parasites is standard complete DMEM (Gibco BRL, USA) containing glucose (5.5 mM), glutamine (2 mM), Hepes (25 mM) and 1% dialyzed bovine fetal calf serum (Gibco BRL, USA). For bioactivity assays, the HFF cells are grown in 96 well plates and each well is infected with 1×10^4TgLuc+parasitesin the presence of 10 μM test molecules (in primary screens) in a total volume of 200 μL. After 2 days of incubation and growth in a 37° C. incubator maintaining 5% CO2, the 96 well plates are processed for luminescence measurements using the reagents in the luciferase assay kit (Promega, USA). The results are corrected for background (uninfected HFF cultures), and normalized against both positive (untreated parasite cultures) and negative (standard drug treated parasite cultures) to identify those molecules with % inhibition values >80% for further dose analysis and IC50 determination using a dilution series ranging from 10 μM to 1 nM. Data from the preliminary screen (@ 10 μM only) is shown in Table-1 and dose response experiments are underway.

[3] = Plasmodium falciparum, 3D7, 60 h
[4] = Plasmodium falciparum, 3D7, read-out: IC50(P. falciparum, μM), dose response, dilution series 10 μM to 1 nM, 3D7
[5] = Toxoplasma gondii, 48 h; primary screen at 10 μM, TgLuc+ tachyzoites in HFF cells, 2 days incubation
[6] = dose response, dilution series 10 μM to 1 nM, 3D7, read-out: IC50(P. falciparum)
[7] = primary screen at 10 μM, 3D7, 60 hours incubation
[8] = primary screen at 10 μM, TgLuc+ tachyzoites in HFF cells, 2 days incubation
[9] = Plasmodium falciparum, 3D7, dose response, dilution series 10 μM to 1 nM, 3D7, read-out: IC50(P. falciparum)
[10] = Plasmodium falciparum, primary screen at 10 μM, 3D7, 60 hours incubation

Compound | inhibition at 10 µM [2, 5] [%] | IC50 [1, 6] | IC50 [1, 9] [µM] | inhibition at 10 µM [1, 10] [%] | further results
C=CC[N+]1(C)CC[Si](c2ccccc2)(c2ccccc2)CC1 [NDS 101039, 1-allyl-1-methyl-4,4-diphenyl-1,4-azasilinan-1-ium bromide] | 17 |  |  |  | inhibition at 10 µM [1, 3]: 76.2%; IC50 [1, 4]: 7.11 µM
1,1-dibenzyl-4,4-diphenyl-1λ4,4-azasilinan-2-ylium bromide [NDS 100953] |  | 1.69 µM |  |  | % inhibition (P. falciparum) [1, 7]: 94.96%; % inhibition (T. gondii) [2, 8]: 39%
c1ccc(CN2CC[Si](c3ccccc3)(c3ccccc3)CC2)cc1 [NDS 100860] | 99.4 | 2.3 µM | 1.75 | 112 | IC50 ([2]; read-out: IC50 (T gondii); dose response, dilution series 10 μM to 1 nM): 5.03 µM and 2.09 µM
1-benzyl-1-ethyl-4,4-diphenyl-1λ4,4-azasilinan-2-ylium iodide [NDS 100952] |  | 0.33 µM |  |  | % inhibition (P. falciparum) [1, 7]: 104.01%; IC50 ([2]; dose response, dilution series 10 μM to 1 nM; read-out: IC50 (T gondii)): 1.24 µM; % inhibition (T. gondii) [2, 8]: 72.06%
c1ccc([Si]2(c3ccccc3)CC[N+]3(CCCCC3)CC2)cc1 [NDS 101017] | 0 | 2.07 µM and 4.98 µM |  | 87.1 | 
C[N+]1(C)CC[Si](c2ccccc2)(c2ccccc2)CC1 [NDS 101044, 1,1-dimethyl-4,4-diphenyl-1,4-azasilinan-1-ium iodide] | 0 |  | 2.46 | 63.5 | 
C[N+]1(Cc2ccccc2)CC[Si](c2ccccc2)(c2ccccc2)CC1 [NDS 100861] | 36 | 2.39 µM | 1.64 | 115 | 
CC(C)=CC[N+]1(CC=C(C)C)CC[Si](c2ccccc2)(c2ccccc2)CC1 [NDS 101015, 1,1-bis(3-methylbut-2-en-1-yl)-4,4-diphenyl-1,4-azasilinan-1-ium bromide] | 20 |  |  |  | inhibition at 10 µM [1, 3]: 103%; IC50 [1, 4]: 0.48 µM; IC50 ([1]; read-out: IC50(P. falciparum), dose response, dilution series 10 μM to 1 nM, 3D7): 0.29 µM
